Data: patent publication US20120029187A1, “HALOALKYLSULFONANILIDE DERIVATIVE” (Nissan Chemical Industries, Ltd., priority 2009, published 2012)

Key:
Format in all cases: in vivo
barnyardgrass [1] = assay: Test Example 1: herbicidal effects in preemergence treatment under submerged conditions; details: dose 2.52 g/a
Procedure, shortened: (§1)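 Submerged conditions, 4 cm water over alluvial soil. Weeds sown and 2.5-leaf rice transplanted; compound applied preemergence to water surface, doses in g per are. Greenhouse, 25 to 30° C., three weeks, then 0–5 mortality rating.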

bulrush [2] = assay: as above; details: dose 2.52 g/a
Procedure, shortened: as §1

ducksalad [3] = assay: as above; details: dose 2.52 g/a
Procedure, shortened: as §1

transplanted rice = assay: Test Example 1: preemergence treatment under submerged conditions, effect on crop; details: dose 2.52 g/a
Procedure, shortened: as §1

barnyardgrass [4] = assay: Test Example 2: herbicidal effects during the vegetation period under submerged conditions; details: treatment during the vegetation period under submerged conditions; dose 2.52 g/a
Procedure, shortened: (§2)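 Barnyardgrass, bulrush and ducksalad were co-sown in alluvial soil flooded to 4 cm and grown in a greenhouse at 25 to 30° C. At the 1- or 2-leaf stage, water-diluted emulsifiable concentrates went onto the water surface at set doses (g/a). Herbicidal effect was scored three weeks later on a graded scale.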

bulrush [5] = assay: as above; details: treatment during the vegetation period under submerged conditions; dose 2.52 g/a
Procedure, shortened: as §2

ducksalad [6] = assay: as above; details: treatment during the vegetation period under submerged conditions; dose 2.52 g/a
Procedure, shortened: as §2

Italian ryegrass [7] = assay: Test Example 3: herbicidal effects in soil treatment; details: dose 3.2 g/a
Procedure, shortened: (§3)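 Seeds were sown in sterilized diluvial soil and covered with about 1.5 cm of soil. Compounds, formulated as emulsifiable concentrates and diluted with water, were sprayed evenly over the soil surface at set doses in g/a. Herbicidal effect was scored on a rating scale three weeks later.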

barnyardgrass [8] = assay: as above; details: dose 3.2 g/a
Procedure, shortened: as §3

beadstraw [9] = assay: as above; details: dose 3.2 g/a
Procedure, shortened: as §3

common chickweed [10] = assay: as above; details: dose 3.2 g/a
Procedure, shortened: as §3

common lambsquater [11] = assay: as above; details: dose 3.2 g/a
Procedure, shortened: as §3

common ragweed [12] = assay: as above; details: dose 3.2 g/a
Procedure, shortened: as §3

giant foxtail [13] = assay: as above; details: dose 3.2 g/a
Procedure, shortened: as §3

large crabgrass [14] = assay: as above; details: dose 3.2 g/a
Procedure, shortened: as §3

posumbu knotweed [15] = assay: as above; details: dose 3.2 g/a
Procedure, shortened: as §3

redroot pigweed [16] = assay: as above; details: dose 3.2 g/a
Procedure, shortened: as §3

velvetleaf [17] = assay: as above; details: dose 3.2 g/a
Procedure, shortened: as §3

water foxtail [18] = assay: as above; details: dose 3.2 g/a
Procedure, shortened: as §3

Italian ryegrass [19] = assay: Test Example 4: herbicidal effect in foliage treatment; details: dose 3.2 g/a, three weeks after application
Procedure, shortened: (§4)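 Doses are given in grams per are of applied compound, sprayed as water-diluted emulsifiable concentrate onto foliage of 14-day-old plants grown at 25 to 30° C. Herbicidal activity was assessed visually on a rating scale after three weeks.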

barnyardgrass [20] = assay: as above; details: dose 3.2 g/a, three weeks after application
Procedure, shortened: as §4

beadstraw [21] = assay: as above; details: dose 3.2 g/a, three weeks after application
Procedure, shortened: as §4

common chickweed [22] = assay: as above; details: dose 3.2 g/a, three weeks after application
Procedure, shortened: as §4

common lambsquater [23] = assay: as above; details: dose 3.2 g/a, three weeks after application
Procedure, shortened: as §4

common ragweed [24] = assay: as above; details: dose 3.2 g/a, three weeks after application
Procedure, shortened: as §4

giant foxtail [25] = assay: as above; details: dose 3.2 g/a, three weeks after application
Procedure, shortened: as §4

large crabgrass [26] = assay: as above; details: dose 3.2 g/a, three weeks after application
Procedure, shortened: as §4

posumbu knotweed [27] = assay: as above; details: dose 3.2 g/a, three weeks after application
Procedure, shortened: as §4

redroot pigweed [28] = assay: as above; details: dose 3.2 g/a, three weeks after application
Procedure, shortened: as §4

velvetleaf [29] = assay: as above; details: dose 3.2 g/a, three weeks after application
Procedure, shortened: as §4

water foxtail [30] = assay: as above; details: dose 3.2 g/a, three weeks after application
Procedure, shortened: as §4

Structure (SMILES) | A: barnyardgrass, herbicidal effect (evaluation scale 0-5) (barnyardgrass [1]) | B: bulrush, herbicidal effect (evaluation scale 0-5) (bulrush [2]) | C: ducksalad, herbicidal effect (evaluation scale 0-5) (ducksalad [3]) | a: transplanted rice, effect on crop (evaluation scale 0-5) (transplanted rice) | A: barnyardgrass, herbicidal effect (evaluation scale 0-5) (barnyardgrass [4]) | B: bulrush, herbicidal effect (evaluation scale 0-5) (bulrush [5]) | C: ducksalad, herbicidal effect (evaluation scale 0-5) (ducksalad [6]) | H: Italian ryegrass, herbicidal effect (evaluation scale 0-5) (Italian ryegrass [7]) | A: barnyardgrass, herbicidal effect (evaluation scale 0-5) (barnyardgrass [8]) | O: beadstraw, herbicidal effect (evaluation scale 0-5) (beadstraw [9]) | N: common chickweed, herbicidal effect (evaluation scale 0-5) (common chickweed [10]) | L: common lambsquater, herbicidal effect (evaluation scale 0-5) (common lambsquater [11]) | J: common ragweed, herbicidal effect (evaluation scale 0-5) (common ragweed [12]) | E: giant foxtail, herbicidal effect (evaluation scale 0-5) (giant foxtail [13]) | D: large crabgrass, herbicidal effect (evaluation scale 0-5) (large crabgrass [14]) | M: posumbu knotweed, herbicidal effect (evaluation scale 0-5) (posumbu knotweed [15]) | K: redroot pigweed, herbicidal effect (evaluation scale 0-5) (redroot pigweed [16]) | I: velvetleaf, herbicidal effect (evaluation scale 0-5) (velvetleaf [17]) | G: water foxtail, herbicidal effect (evaluation scale 0-5) (water foxtail [18]) | H: Italian ryegrass, herbicidal effect (Italian ryegrass [19]) | also measured
CC1(C)CC(=O)N(Cc2ccccc2N(C(=O)OCCCl)S(=O)(=O)C(F)(F)F)CO1 [II-28] | 5 (mortality of 90% or above (nearly complete death)) | 5 (mortality of 90% or above (nearly complete death)) | 5 (mortality of 90% or above (nearly complete death)) | 4 (mortality of at least 70% and less than 90%) | 5 (mortality of 90% or above (nearly complete death)) | 5 (mortality of 90% or above (nearly complete death)) | 5 (mortality of 90% or above (nearly complete death)) | 2 (mortality of at least 20% and less than 40%) | 5 (mortality of 90% or above (nearly complete death)) | 5 (mortality of 90% or above (nearly complete death)) | 4 (mortality of at least 70% and less than 90%) | 0 (mortality of less than 5% (almost ineffective)) | 4 (mortality of at least 70% and less than 90%) | 5 (mortality of 90% or above (nearly complete death)) | 5 (mortality of 90% or above (nearly complete death)) | 5 (mortality of 90% or above (nearly complete death)) | 0 (mortality of less than 5% (almost ineffective)) | 4 (mortality of at least 70% and less than 90%) | 5 (mortality of 90% or above (nearly complete death)) | 3 (mortality of at least 40% and less than 70%) | A: barnyardgrass, herbicidal effect (barnyardgrass [20]): 5 (mortality of 90% or above (nearly complete death)); O: beadstraw, herbicidal effect (beadstraw [21]): 5 (mortality of 90% or above (nearly complete death)); N: common chickweed, herbicidal effect (common chickweed [22]): 4 (mortality of at least 70% and less than 90%); L: common lambsquater, herbicidal effect (common lambsquater [23]): 1 (mortality of at least 5% and less than 20%); J: common ragweed, herbicidal effect (common ragweed [24]): 3 (mortality of at least 40% and less than 70%); E: giant foxtail, herbicidal effect (giant foxtail [25]): 4 (mortality of at least 70% and less than 90%); D: large crabgrass, herbicidal effect (large crabgrass [26]): 4 (mortality of at least 70% and less than 90%); M: posumbu knotweed, herbicidal effect (posumbu knotweed [27]): 4 (mortality of at least 70% and less than 90%); K: redroot pigweed, herbicidal effect (redroot pigweed [28]): 0 (mortality of less than 5% (almost ineffective)); I: velvetleaf, herbicidal effect (velvetleaf [29]): 4 (mortality of at least 70% and less than 90%); G: water foxtail, herbicidal effect (water foxtail [30]): 5 (mortality of 90% or above (nearly complete death))
CCC(=O)N(c1ccccc1CN1COC(C)(CC(F)(F)F)CC1=O)S(=O)(=O)C(F)(F)F (centres unmarked) [II-52] | 5 (mortality of 90% or above (nearly complete death)) | 5 (mortality of 90% or above (nearly complete death)) | 5 (mortality of 90% or above (nearly complete death)) | 0 (mortality of less than 5% (almost ineffective)) | 5 (mortality of 90% or above (nearly complete death)) | 5 (mortality of 90% or above (nearly complete death)) | 5 (mortality of 90% or above (nearly complete death)) | 5 (mortality of 90% or above (nearly complete death)) | 5 (mortality of 90% or above (nearly complete death)) | 0 (mortality of less than 5% (almost ineffective)) | 5 (mortality of 90% or above (nearly complete death)) | 4 (mortality of at least 70% and less than 90%) | 5 (mortality of 90% or above (nearly complete death)) | 5 (mortality of 90% or above (nearly complete death)) | 5 (mortality of 90% or above (nearly complete death)) | 5 (mortality of 90% or above (nearly complete death)) | 1 (mortality of at least 5% and less than 20%) | 5 (mortality of 90% or above (nearly complete death)) | 5 (mortality of 90% or above (nearly complete death)) | 4 (mortality of at least 70% and less than 90%) | A: barnyardgrass, herbicidal effect (barnyardgrass [20]): 5 (mortality of 90% or above (nearly complete death)); O: beadstraw, herbicidal effect (beadstraw [21]): 5 (mortality of 90% or above (nearly complete death)); N: common chickweed, herbicidal effect (common chickweed [22]): 4 (mortality of at least 70% and less than 90%); L: common lambsquater, herbicidal effect (common lambsquater [23]): 4 (mortality of at least 70% and less than 90%); J: common ragweed, herbicidal effect (common ragweed [24]): 3 (mortality of at least 40% and less than 70%); E: giant foxtail, herbicidal effect (giant foxtail [25]): 5 (mortality of 90% or above (nearly complete death)); D: large crabgrass, herbicidal effect (large crabgrass [26]): 4 (mortality of at least 70% and less than 90%); M: posumbu knotweed, herbicidal effect (posumbu knotweed [27]): 1 (mortality of at least 5% and less than 20%); K: redroot pigweed, herbicidal effect (redroot pigweed [28]): 0 (mortality of less than 5% (almost ineffective)); I: velvetleaf, herbicidal effect (velvetleaf [29]): 3 (mortality of at least 40% and less than 70%); G: water foxtail, herbicidal effect (water foxtail [30]): 5 (mortality of 90% or above (nearly complete death))
